The values that follow come from patent US20220274938A1, “5-[(1S)-1-(4-BROMOPHENOXY)ETHYL]-2H-TETRAZOLE DERIVATIVES AND RELATED COMPOUNDS AS CLC-1 ION CHANNEL INHIBITORS FOR TREATING NEUROMUSCULAR DISORDERS” (NMD PHARMA A/S, priority 2019, published 2022).

In assay [1] the test system is isolated rat soleus muscles. Briefly: Measurement of force in an in vitro model: isolated rat soleus nerve-muscle preparation with tubocurarine. Format: cell-based. The note with it: Rattus norvegicus, 40 min; 50 μM test compound, after 40 mins of compound exposure; 115 nM tubocurarine for 90 mins; read-out: Point increase (%) of initial force that was restored. The protocol:
FIG. 2. […] Force traces from a representative muscle stimulated to contract in 1) control condition before addition of neuromuscular blocking agent, 2) the force response to stimulation after 90 minutes incubation with Tubocurarine. […] The traces presented in panel A (1, 2, 3), correspond to the dotted lines in panel B, respectively.
Recovery of force is quantified as the percentage of the force prior to tubocurarine that is recovered by the compound.
The current disclosure relates to compounds that inhibit CIC-1 ion channels and increase muscle excitability and thereby improve muscle function in clinical conditions where muscle activation is failing. Such conditions result in loss of contractile function of skeletal muscle, weakness and excessive fatigue. In this series of experiments the compounds were tested for their ability to restore contractile function of isolated rat muscle when the neuromuscular transmission had been compromised akin to neuromuscular disorders.
Experimentally, soleus muscles from 4-5 week old rats were isolated with the motor nerve remaining attached. The nerve-muscle preparations were mounted in experimental setups that enabled electrical stimulation of the motor nerve. Stimulation of the motor nerve led to activation of the muscle fibres and ensuing force production that was recorded. The nerve-muscle preparations were also in these experiments incubated in the standard Krebs Ringer (see example 5) and the solution was heated to 30° C. and continuously equilibrated with a mixture of 95% O2 and 5% CO2, pH˜7.4.
After mounting the nerve-muscle preparation in the experimental setup, the contractile function of the muscle was initially assessed under the control conditions (FIG. 2A). […] The experimental condition mimics the failing neuromuscular transmission in a range of neuromuscular disorders. After addition of tubocurarine the contractile force declined over the next 90 mins to 10-50% of the control force. 50 μM of the test compound was then added and the contractile force recovered despite the continued presence of tubocurarine. To quantify the ability of the compound to restore force the percentage of the initial force that was restored was determined after 40 mins of compound exposure (FIG. 2B) and the point increase is reported in Table 3.

A further assay addresses T1, human CIC-1 channels (Homo sapiens, UniProt P35523).
T1 construct: host or cells: CHO (Chinese hamster ovary) cells, cryopreserved, used directly after thawing
Briefly: Automated patch-clamp on the human isoform of CIC-1 expressed in CHO cells. Format: cell-based. The note with it: compound added to the intracellular solution vs control cell patches, positive shift reflects inhibition. The protocol: The investigatory goal of these experiments was to evaluate how compounds affect the open probability and current amplitude of human CIC-1 channels expressed in CHO cells. Experiments were performed using an automated patch clamp system that allowed high throughput testing of whole cell patches together with both intracellular and extracellular addition of compound.
Automated whole cell patch clamp experiments were performed with the Qpatch 16 system (Sophion Bioscience, Ballerup, Denmark) at room temperature. Data acquisition and analysis were performed in the Qassay software (ver. 5.6, Odense).
To obtain tail currents, the membrane potential was stepped to −100 mV after each test voltage for 300 ms and then relaxed to −30 mV for 2 sec between sweeps (FIG. 3). I/V relationships for whole cell instant and steady state current amplitudes were obtained by plotting average current densities at the beginning and at the end of the 300 ms step against the membrane potential (FIG. 4).
In order to determine the relative overall open probability (Po), the instantaneous tail currents were normalized to the maximal tail current obtained following the most positive voltage step and plotted against the test voltage. Plots of normalized tail currents from each whole cell patch were then fitted to a Boltzmann function allowing determination of half activation voltages (V1/2, FIG. 5).
Osmolality adjusted to ˜320 using sucrose. Intracellular solutions contained: 80 mM CsF, 60 mM CsCl, 5/1 mM KOH/EGTA, 10 mM HEPES, 10 mM NaCl, pH adjusted to 7.2 with NaOH (2 M). Osmolality adjusted to ˜320 mOsm using sucrose.
Cells used in patch clamp experiments were Chinese hamster ovary cells (CHO) constitutively expressing human CIC-1 channels. The amino acid sequence encoded by the cDNA used to create this cell line was identical to the translated sequence for GenBank accession number NM_000083.2. Cells were produced by Charles River (Catalogue CT6175, Cleveland Ohio, USA) in a cryopreserved format. Experiments were performed on the cells directly after thawing (3×10^6 cells used in each experiment).
To evaluate the compound effect on CIC-1, when applied directly to the intracellular side of the cell membrane, the half activation voltage, V1/2, was determined from whole cell patches with compound added to the intracellular solution and then compared to V1/2 determined from control cell patches with only vehicle added to the intracellular solution. Additionally, the effect of extracellular added compound was evaluated by determine V1/2 and steady state current amplitudes before and after exchanging the extracellular solution to contain compound.
The difference in half activation voltage of CIC-1 channels, ΔV1/2, was determined as the difference between the cell patches treated intracellularly with compound and control cells patches and is reported in Table 4 below. A positive shift in ΔV1/2 is reflecting CIC-1 channel inhibition by the tested compound. P-values of <0.05 is considered significant.
On the technique in general: The patch-clamp technique gives a direct electrical read-out from membranes.

In the next assay the test system is female Lewis rats. Briefly: In situ muscle contractile characteristics (isometric hindlimb force) under Cisatracurium infusion. The note with it: 21.6 mg/kg i.v.; 80 Hz stimulation; neuromuscular transmission partially inhibited by Cisatracurium. Format: in vivo, rat. The protocol: Isometric hindlimb force was measured in 12-week old female Lewis rats in the presence and absence of compound.
Rats were placed under anesthesia with isoflurane (2-4%), intubated and subsequently connected to a micro ventilator (Microvent 1, Hallowell EMC, US). Two stimulation electrodes were inserted through the skin to stimulate the sciatic nerve. A small incision was made proximal to the ankle, to expose the Achilles tendon, which was tied by cotton string, and connected to a force transducer (Fort250, World Precision Instruments) with adjustable position (Vernier control). The Achilles tendon was then cut distal to the attached cotton string. […]
Muscle contractile properties were assessed by applying an electrical current (under supramaximal voltage conditions) to the nerve and recording the force generated by the muscle. The muscle was stretched until maximal force was obtained, when assessed by 2 Hz stimulation. Isometric force was measured every 30 seconds at 12 Hz (Twitch), 10 pulses, and at every 5 minutes at 80 Hz (Tetanic) for 1 second (80 pulses). […] The effect of test article was assessed on its ability to increase force generated from the stimulation pattern applied. The effect was assessed in the ability to increase force per se (tetanic, 80 Hz, stimulation), and the ratio between individual twitch peaks (12 Hz stimulation). […]

T1 sequence (P35523 whole entry): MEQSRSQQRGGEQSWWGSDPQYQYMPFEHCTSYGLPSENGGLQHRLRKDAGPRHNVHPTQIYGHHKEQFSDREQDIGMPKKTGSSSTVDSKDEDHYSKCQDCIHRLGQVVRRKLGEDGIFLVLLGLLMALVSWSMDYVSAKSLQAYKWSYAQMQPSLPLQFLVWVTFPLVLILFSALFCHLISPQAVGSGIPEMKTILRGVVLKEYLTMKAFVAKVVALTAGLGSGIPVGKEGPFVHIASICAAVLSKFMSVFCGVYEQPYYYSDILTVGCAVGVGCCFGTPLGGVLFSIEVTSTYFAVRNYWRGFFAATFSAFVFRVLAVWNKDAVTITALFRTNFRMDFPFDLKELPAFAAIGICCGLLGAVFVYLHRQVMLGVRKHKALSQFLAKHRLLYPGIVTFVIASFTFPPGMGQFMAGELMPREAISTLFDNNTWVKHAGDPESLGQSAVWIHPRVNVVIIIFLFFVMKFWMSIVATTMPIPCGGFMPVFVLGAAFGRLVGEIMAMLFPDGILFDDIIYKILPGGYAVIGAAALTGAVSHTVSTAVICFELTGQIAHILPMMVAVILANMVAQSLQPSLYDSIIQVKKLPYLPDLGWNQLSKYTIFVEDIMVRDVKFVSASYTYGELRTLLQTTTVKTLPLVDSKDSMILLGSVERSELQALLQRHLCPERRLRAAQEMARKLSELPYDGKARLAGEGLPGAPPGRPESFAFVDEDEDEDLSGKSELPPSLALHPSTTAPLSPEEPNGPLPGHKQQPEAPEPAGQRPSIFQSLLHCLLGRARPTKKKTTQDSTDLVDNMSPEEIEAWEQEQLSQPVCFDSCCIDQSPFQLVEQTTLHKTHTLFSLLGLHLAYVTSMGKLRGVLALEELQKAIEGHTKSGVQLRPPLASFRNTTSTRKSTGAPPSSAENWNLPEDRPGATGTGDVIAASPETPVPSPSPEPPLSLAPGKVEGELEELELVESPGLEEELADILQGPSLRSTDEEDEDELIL

Take `C[C@H](Oc1ccc(Cl)cc1)C(=O)NOC1CCC1` [Compound C-80, (2S)-2-(4-chlorophenoxy)-N-cyclobutoxypropanamide]: the activation at 50 µM in assay [1] is 47%. In addition, on human CIC-1 channels, the “ΔV1/2 (difference in half activation voltage of CIC-1 channels)” value is 9.9 mV.

Take `C[C@H](Oc1ccc(Br)cc1F)c1nn[nH]n1` [Compound E-8, 5-[(1S)-1-(4-bromo-2-fluorophenoxy)ethyl]-2H-1,2,3,4-tetrazole]: the “increase in tetanic force” value in the assay on female Lewis rats is 11%. Further, in assay [1], the activation at 50 µM was 34%. For the same compound, the “ΔV1/2 (difference in half activation voltage of CIC-1 channels)” value on human CIC-1 channels is given as 38.4 mV.
